SMILES strings stand for the structures. Where a name gives a salt, the structure may show the parent alone. Read-outs that look alike come from different tables or passages of the source.

One experiment has as its target Bcl-2 protein (Homo sapiens (Human), UniProt P10415). Briefly: Inhibition of Bcl-2 by the fluorescence polarisation technique. The following applies: fluorescence polarisation test; concentration that inhibits fluorescence polarisation by 50%; read-out: IC50 (nM) Bcl-2 FP. The experiment is classed as binding. As to the method: The fluorescence polarisation tests were carried out on microplates (384 wells). […] After incubation for 2 hours, the fluorescence polarisation is measured.

The test system of experiment [1] is RS4;11 leukaemia tumour line. Briefly: In vitro cytotoxicity (Microculture Tetrazolium Assay, 48 hours). The experiment is classed as cell-based. The following applies: RS4;11 cells, 48 hours exposure, MTT, concentration that inhibits cell viability by 50%, read-out: IC50 (nM) MTT RS4. The procedure: The cytotoxicity studies were carried out on the RS4;11 leukaemia tumour line.
The cells are distributed onto microplates and exposed to the test compounds for 48 hours.

Sequence of Bcl-2 protein (P10415 whole entry): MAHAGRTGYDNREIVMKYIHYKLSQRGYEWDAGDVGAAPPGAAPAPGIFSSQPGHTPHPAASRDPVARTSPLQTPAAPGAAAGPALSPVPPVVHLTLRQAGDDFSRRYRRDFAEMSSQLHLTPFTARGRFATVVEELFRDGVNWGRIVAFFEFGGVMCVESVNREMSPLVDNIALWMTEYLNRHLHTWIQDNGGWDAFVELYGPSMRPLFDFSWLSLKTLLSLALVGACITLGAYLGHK

In the case of `C[C@H]1COC[C@H](C)N1C[C@@H]1Cc2ccccc2CN1C(=O)c1cc2c(cc1-c1cc(C(=O)N(c3ccc(O)cc3)c3ccc4c(ccn4C)c3)c3n1CCCC3)OCO2` [Example 17, 3-{6-[((3S)-3-{[(3S,5S)-3,5-Dimethylmorpholinyl]methyl}-3,4-dihydro-2(1H)-isoquinolinyl)carbonyl]-1,3-benzodioxol-5-yl}-N-(4-hydroxyphenyl)-N-(1-methyl-1H-indol-5-yl)-5,6,7,8-tetrahydro-1-indolizine carboxamide hydrochloride], the IC50 on Bcl-2 protein stood at 81 nM; in experiment [1], 120 nM.
As for `Cn1ccc2cc(N(C(=O)c3cc(-c4cc(Br)ccc4C(=O)N4Cc5ccccc5C[C@H]4CN4CCOCC4)n4c3CCCC4)c3ccc(O)cc3)ccc21` [Example 18, 3-{5-Bromo-2-[((3S)-3-(4-morpholinylmethyl)-3,4-dihydro-2(1H)-isoquinolinyl)carbonyl]phenyl}-N-(4-hydroxyphenyl)-N-(1-methyl-1H-indol-5-yl)-5,6,7,8-tetrahydro-1-indolizine carboxamide hydrochloride], the IC50 at Bcl-2 protein stood at 32 nM; in experiment [1] (Homo sapiens) it was 24.9 nM.
For `CN1CCc2cc(N(C(=O)c3cc(-c4cc(Br)ccc4C(=O)N4Cc5ccccc5C[C@H]4CN4CCOCC4)n4c3CCCC4)c3ccc(O)cc3)ccc21` [Example 19, 3-{5-Bromo-2-[((3S)-3-(4-morpholinylmethyl)-3,4-dihydro-2(1H)-isoquinolinyl)carbonyl]phenyl}-N-(4-hydroxyphenyl)-N-(1-methyl-2,3-dihydro-1H-indol-5-yl)-5,6,7,8-tetrahydro-1-indolizine carboxamide hydrochloride], in that order: 27 nM and 42.3 nM.
For `O=C(c1cc(-c2cc(Cl)ccc2C(=O)N2Cc3ccccc3C[C@H]2CN2CCOCC2)n2c1CCCC2)N(c1ccccc1)c1ccc(O)cc1` [Example 20, 3-{5-Chloro-2-[((3S)-3-(4-morpholinylmethyl)-3,4-dihydro-2(1H)-isoquinolinyl)carbonyl]phenyl}-N-(4-hydroxyphenyl)-N-phenyl-5,6,7,8-tetrahydro-1-indolizine carboxamide hydrochloride], the IC50 is 35 nM at Bcl-2 protein and 105 nM in experiment [1] (Homo sapiens).
In the same order, the values of `O=C(c1cc(-c2cc(Cl)ccc2C(=O)N2Cc3ccccc3C[C@H]2CN2CCOCC2)n2c1CCCC2)N(c1ccc(O)cc1)c1ccc2c(c1)CCN2` [Example 21, 3-{5-Chloro-2-[((3S)-3-(4-morpholinylmethyl)-3,4-dihydro-2(1H)-isoquinolinyl)carbonyl]phenyl}-N-(2,3-dihydro-1H-indol-5-yl)-N-(4-hydroxyphenyl)-5,6,7,8-tetrahydro-1-indolizine carboxamide bis(hydrochloride)] are 22 nM and 34.6 nM.
In the same order, the values of `Cn1ccc2cc(N(C(=O)c3cc(-c4cc(F)ccc4C(=O)N4Cc5ccccc5C[C@H]4CN4CCOCC4)n4c3CCCC4)c3ccc(O)cc3)ccc21` [Example 24, 3-{5-Fluoro-2-[((3S)-3-(4-morpholinylmethyl)-3,4-dihydro-2(1H)-isoquinolinyl)carbonyl]phenyl}-N-(4-hydroxyphenyl)-N-(1-methyl-1H-indol-5-yl)-5,6,7,8-tetrahydro-1-indolizine carboxamide hydrochloride] are 17 nM and 29.8 nM.
In the same order, the values of `O=C(c1cc(-c2cc(F)ccc2C(=O)N2Cc3ccccc3C[C@H]2CN2CCOCC2)n2c1CCCC2)N(c1ccccc1)c1ccc(O)cc1` [Example 25, 3-{5-Fluoro-2-[((3S)-3-(4-morpholinylmethyl)-3,4-dihydro-2(1H)-isoquinolinyl)carbonyl]phenyl}-N-(4-hydroxyphenyl)-N-phenyl-5,6,7,8-tetrahydro-1-indolizine carboxamide hydrochloride] are 29 nM and 143 nM.
Turning to `CN1CCCc2cc(N(C(=O)c3cc(-c4cc(Cl)ccc4C(=O)N4Cc5ccccc5C[C@H]4CN4CCOCC4)n4c3CCCC4)c3ccc(O)cc3)ccc21` [Example 26, 3-{5-Chloro-2-[((3S)-3-(4-morpholinylmethyl)-3,4-dihydro-2(1H)-isoquinolinyl)carbonyl]phenyl}-N-(4-hydroxyphenyl)-N-(1-methyl-1,2,3,4-tetrahydro-6-quinolinyl)-5,6,7,8-tetrahydro-1-indolizine carboxamide hydrochloride], the IC50 on Bcl-2 protein was determined as 17 nM; in experiment [1] (Homo sapiens) it was 40 nM.
In the same order, the values of `CN1CCOc2cc(N(C(=O)c3cc(-c4cc(Cl)ccc4C(=O)N4Cc5ccccc5C[C@H]4CN4CCOCC4)n4c3CCCC4)c3ccc(O)cc3)ccc21` [Example 27, 3-{5-Chloro-2-[((3S)-3-(4-morpholinylmethyl)-3,4-dihydro-2(1H)-isoquinolinyl)carbonyl]phenyl}-N-(4-hydroxyphenyl)-N-(4-methyl-3,4-dihydro-2H-1,4-benzoxazin-7-yl)-5,6,7,8-tetrahydro-1-indolizine carboxamide hydrochloride] are 17 nM and 35.4 nM.
In the same order, the values of `CCN(CC)c1ccc(N(C(=O)c2cc(-c3cc(Cl)ccc3C(=O)N3Cc4ccccc4C[C@H]3CN3CCOCC3)n3c2CCCC3)c2ccc(O)cc2)cc1` [Example 28, 3-{5-Chloro-2-[((3S)-3-(4-morpholinylmethyl)-3,4-dihydro-2(1H)-isoquinolinyl)carbonyl]phenyl}-N-[4-(diethylamino)phenyl]-N-(4-hydroxyphenyl)-5,6,7,8-tetrahydro-1-indolizine carboxamide hydrochloride] are 25 nM and 76.1 nM.
In the same order, the values of `O=C(c1cc(-c2cc(Cl)ccc2C(=O)N2Cc3ccccc3C[C@H]2CN2CCOCC2)n2c1CCCC2)N(c1ccc(O)cc1)c1ccc2c(c1)CCC2` [Example 29, 3-{5-Chloro-2-[((3S)-3-(4-morpholinylmethyl)-3,4-dihydro-2(1H)-isoquinolinyl)carbonyl]phenyl}-N-(2,3-dihydro-1H-inden-5-yl)-N-(4-hydroxyphenyl)-5,6,7,8-tetrahydro-1-indolizine carboxamide hydrochloride] are 35 nM and 85.5 nM.
For the molecule `CN1CCN(C[C@@H]2Cc3ccccc3CN2C(=O)c2ccc(Cl)cc2-c2cc(C(=O)N(c3ccc(O)cc3)c3ccc4c(ccn4C)c3)c3n2CCCC3)CC1` [Example 30, 3-{5-Chloro-2-[((3S)-3-[(4-methyl-1-piperazinyl)methyl]-3,4-dihydro-2(1H)-isoquinolinyl)carbonyl]phenyl}-N-(4-hydroxyphenyl)-N-(1-methyl-1H-indol-5-yl)-5,6,7,8-tetrahydro-1-indolizine carboxamide bis(hydrochloride)], the values for the IC50 (on Bcl-2 protein; in experiment [1] (Homo sapiens)) were 13 nM and 8.59 nM, respectively.
For `O=C(c1cc(-c2cc3c(cc2C(=O)N2Cc4ccccc4C[C@H]2CN2CCOCC2)OCCCO3)n2c1CCCC2)N(c1ccccc1)c1ccc(O)cc1` [Example 31, N-(4-Hydroxyphenyl)-3-{8-[((3S)-3-(4-morpholinylmethyl)-3,4-dihydro-2(1H)-isoquinolinyl)carbonyl]-3,4-dihydro-2H-1,5-benzodioxepin-7-yl}-N-phenyl-5,6,7,8-tetrahydro-1-indolizine carboxamide hydrochloride], in that order: 33 nM and 340 nM.

The values are drawn from patent US9120791B2, “Indolizine compounds, a process for their preparation and pharmaceutical compositions containing them” (LES LABORATOIRES SERVIER, priority 2012, dated 2015).
